Assay results taken from US20050084908A1, “Methods for detecting binding of low-molecular-weight compound and its binding partner molecule” (CHUGAI SEIYAKU KABUSHIKI KAISHA, priority 2000, published 2005).
“And” between values parts separate entries of the source, which are not always exact repeats. Equal values may be shown once.

T1: Recombinant human Vitamin D3 receptor (VDR) (Homo sapiens, UniProt P11473)
T1 construct: purchased Pan Vera Corp
T1 sequence (P11473 1-427): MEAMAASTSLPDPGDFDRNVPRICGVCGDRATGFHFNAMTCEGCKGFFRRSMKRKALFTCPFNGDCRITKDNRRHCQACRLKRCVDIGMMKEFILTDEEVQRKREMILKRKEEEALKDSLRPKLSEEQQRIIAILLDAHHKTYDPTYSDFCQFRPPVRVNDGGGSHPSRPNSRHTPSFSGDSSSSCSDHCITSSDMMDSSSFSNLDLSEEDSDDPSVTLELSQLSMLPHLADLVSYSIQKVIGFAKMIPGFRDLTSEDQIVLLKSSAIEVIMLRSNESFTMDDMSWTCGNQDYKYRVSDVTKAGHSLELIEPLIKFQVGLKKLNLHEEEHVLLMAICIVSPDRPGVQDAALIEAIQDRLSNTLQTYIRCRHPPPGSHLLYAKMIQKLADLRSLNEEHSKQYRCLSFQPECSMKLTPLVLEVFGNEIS

B1: ERLBD: partial sequence containing the ligand binding domain of human estrogen receptor-α (Ala288-Arg555) (protein, UniProt P03372 288-555, looked up, fragment)
chain: AANLWPSPLMIKRSKKNSLALSLTADQMVSALLDAEPPILYSEYDPTRPFSEASMMGLLTNLADRELVHMINWAKRVPGFVDLTLHDQVHLLECAWLEILMIGLVWRSMEHPGKLLFAPNLLLDRNQGKCVEGMVEIFDMLLATSSRFRMMNLQGEEFVCLKSIILLNSGVYTFLSSTLKSLEEKDHIHRVLDKITDTLIHLMAKAGLTLQQQHQRLAQLLLILSHIRHMSNKGMEHLYSMKCKNVVPLYDLLLEMLDAHRLHAPTSR
B2: ERLBD #110: lot of purified ERLBD (protein, UniProt P03372 288-555, looked up, fragment)
chain: B1 chain
B3: ERLBD #113: lot of purified ERLBD (protein, UniProt P03372 288-555, looked up, fragment)
chain: B1 chain
B4: ERLBD #112: lot of purified ERLBD (protein, UniProt P03372 288-555, looked up, fragment)
chain: B1 chain
B5: ERLBD #111: lot of purified ERLBD (protein, UniProt P03372 288-555, looked up, fragment)
chain: B1 chain

What was measured:
[1] = biological target: T1, Recombinant human Vitamin D3 receptor (VDR); test: Inhibition of binding of immobilized ED-533 to VDR (SPR, BIACORE 3000); settings: VDR 100 nM; for inhibitory activity compared with 1,25(OH)2 vitamin D3 (in words): compound 0, 10, 100 or 1000 nM, FIG. 7; for IC50: test compound 0-1000 nM, 1 hr room temperature, 5% DMSO
Procedure: HBS-EP containing 5% DMSO was used as a running buffer, and the flow rate was set at 5 μl/min. Carboxyl groups of carboxymethyl dextran on the Sensor Chip CM5 were activated by injecting 100 μl of 0.05 M N-hydroxysuccinimide (NHS)/0.2 M N-ethyl-N′-(3-dimethyl aminopropyl)carbodiimide (EDC). […] Aliquots (10 to 40 μl) were injected onto the chip and immobilized by the amine coupling method. Excessive activated groups were blocked by injecting 100 μl of ethanolamine, pH 8.5. Non-covalently bound substances were washed out by injecting 10 μl each of 50% aqueous DMSO solution and 50% PrOH/10% DMSO/50 mM HCl.
The structural formulae of OCT and ED-71 are represented by formulae (2) and (3), respectively. [drawing 2]

[2] = Conventional RI method binding activity assay using labeled oestradiol; settings: 100% = [6,7-3H]oestradiol bound to all the ERLBD added, single replicate values
Excerpt: FIG. 5 schematically illustrates a conventional binding assay using a ligand labeled with radioisotope (RI). ^3H-ligand stands for [6,7-^3H]estradiol, MBP-LBD for MBP-ERLBD, and LBD for ERLBD After the ligand and the binding molecule are mixed and allowed to stand at room temperature for 6 hr, the resulting mixture is subjected to the Bound/Free separation procedure. The amount of [6,7-^3H]estradiol bound to MBP-ERLBD or ERLBD is detected with a scintilator.
The binding activity of [6,7-^3H]oestradiol (Amersham Pharmacia Biotech) to a full-length human estrogen receptor-α, ERLBD, and MBP-ERLBD was assayed according to a conventional method using a ligand labeled with radioisotope (RI) (Sasson, S. and Notides, A. C. (1988) Mol. Endcrinol., Vol. 2, No. 4, p307-312). The reaction is schematically illustrated in FIG. 5. The RI value obtained when [6,7-^3H]oestradiol bound to all the ERLBD added to the assay system was taken as 100%, and the relative binding activity was calculated. A full-length human estrogen receptor-α and MBP-ERLBD (lot #87 and #90) were used as the binding molecule. […] The method of the present invention uses proteins as the binding molecule, and the reaction time is thus short, so that the binding activity can be measured with a good reproducibility without causing a decrease in the binding activity.

[3] = BIACORE (SPR) binding activity assay of MBP-ERLBD and ERLBD to immobilized 7α-(9-aminononyl)estradiol; settings: analyte 20 μg/ml, 10 μl injection; single values of duplicate (n = 2)
Procedure: Immobilization of 7α-(9-aminononyl)estradiol on the Sensor Chip CM5 (Pharmacia) was carried out as follows. HBS was used as a continuous flow buffer, and the flow rate was set at 5 μl/min. Carboxyl groups of carboxymethyl dextran on the Sensor Chip CM5 were activated by injecting 100 μl of 0.05 M N-hydroxysuccinimide (NHS)/0.2 M N-ethyl-N′-(3-dimethyl aminopropyl)-carbodiimide (EDC). 7α-(9-aminononyl)estradiol (approx. 7 mg/ml in benzene, approx. 4.5 mg/ml in 2-PrOH) was first diluted 10-fold in EtOH, further diluted 10-fold using 10 mM Na-acetate buffer, pH 4.0 or pH 4.5. Aliquots (10 to 50 μl) were injected onto the chip and immobilized by the amine coupling method. Then, excessive activated groups were blocked by injecting 100 μl of ethanolamine, pH 8.5. Further, non-covalently bound substances were washed out by 10 μl of 0.1 M Gly-HCl buffer, pH 2.5 and 10 mM HCl.
The reaction principle was illustrated in FIG. 2. MBP-ERLBD (20 μg/ml, 10 μl) or ERLBD (20 μg/ml, 10 μl) which were prepared by the above-described method were injected onto the chip to assay their binding activities to the immobilized 7α-(9-aminononyl)estradiol. Regeneration and washing of sensor chips were performed by injecting 10 μl of 7% propanol/50 mM HCl.
For the purpose of measuring the reproducibility and lot-to-lot variations of the binding activity assay, the binding activity assay was performed using different lots of MBP-ERLBD and ERLBD preparations to compare assay values in duplicate. The binding levels of MBP-ERLBD (Lot #90) (20 μg/ml, 10 μl) were 2124.9 and 2048.9 RU, indicating a high reproducibility (% CV=2.6%) (Table 1). Highly reproducible data were also obtained for ERLBD (Lots. #110, #111, #112, and #113) (20 μg/ml, 10 μl each), as shown in Table 1. […] The results also indicate that binding activities can be accurately compared lot-to-lot variations, and that this method may be applied to the product quality control, etc. This method has also enabled easily monitoring active fractions in the purification process of ERLBD, leading to shortening of its preparation time. Results of examination of the reproducibility of the binding activity assay and the comparison thereof among sample lots are summarized in Table 1.
Using MBP-ERLBD (Lot #90) and ERLBD (Lots. #110, #111, #112, and #113) as the binding molecule, the binding activity was assayed in duplicate. RU is the unit of surface plasmon resonance intensity. % CV represents the dispersion in duplicate, indicating the larger the value, the greater the dispersion.

| Molecule | inhibitory activity compared with 1,25(OH)2 vitamin D3 (in words) [1] | IC50 [1] | Relative activity (%), binding of [6,7-3H]oestradiol [2] | Response [RU], binding level to immobilized 7α-(9-aminononyl)estradiol [3] |
| --- | --- | --- | --- | --- |
| C=C1/C(=C\C=C2/CCC[C@]3(C)[C@@H]([C@H](C)CCCC(C)(C)O)CC[C@@H]23)C[C@@H](O)[C@@H](OCCCO)[C@@H]1O [ED-71, 2β-(3-Hydroxypropoxy)-1α,25-dihydroxyvitamin D3] | almost the same inhibitory activities | 500 nM |  |  |
| C=C1/C(=C\C=C2/CCC[C@@]3(C)C2CC[C@@H]3[C@H](C)CCCC(C)(O)CCCCCCCCCCN)C[C@@H](O)C[C@@H]1O (stereo partly drawn) [ED-533, (1α,3β,5Z,7E)-25-(10-aminodecanyl)-27-nor-9,10-secocholesta-5,7,10(19)-triene-1,3,25-triol] | almost the same inhibitory activities | 520 nM |  |  |
| C=C1/C(=C\C=C2/CCC[C@]3(C)[C@@H]([C@H](C)OCCC(C)(C)O)CC[C@@H]23)C[C@@H](O)C[C@@H]1O [OCT, 1α,25-dihydroxy-22-oxavitamin D3] | almost the same inhibitory activities | 110 nM |  |  |
| B1 |  |  | about 10% | about 2000 RU |
| B2 |  |  |  | 1825.8 RU and 1815.0 RU |
| B3 |  |  |  | 1613.7 RU and 1597.3 RU |
| B4 |  |  |  | 1255.7 RU and 1203.9 RU |
| B5 |  |  |  | 1032.0 RU and 990.3 RU |
